Key:
Experiment in all cases: relative viability (nuclei count vs DMSO), 5 days (fraction); higher = more cells survive
[1] = compound: C1/C(=C\C2=CC=CS2)/C(=O)/C(=C/C3=CC=CS3)/C1 + O=C(CCCCCCC(=O)Nc1ccccc1)NO [Vorinostat] (partner 1 µM)
In short: (§1)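 After 5 days of treatment, lung cancer cells in 1536-well plates were fixed and stained in a single step (final 0.05% Triton X-100, 1% formaldehyde, 1 ug/ml Hoechst) and their nuclei counted on 4× images. Treatment had been applied by pin tool the day after seeding as one drug alone or as a fixed anchor-drug dose with five library-drug doses (not always all listed) in √10 steps. Relative viability is the nuclei count of treated wells divided by that of vehicle wells, and values are medians of duplicate plates.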

[2] = compound: C1/C(=C\C2=CC=CS2)/C(=O)/C(=C/C3=CC=CS3)/C1 + CC1(C)CCC(c2ccc(Cl)cc2)=C(CN2CCN(c3ccc(C(=O)NS(=O)(=O)c4ccc(N[C@H](CCN5CCOCC5)CSc5ccccc5)c(S(=O)(=O)C(F)(F)F)c4)cc3)CC2)C1 [Navitoclax] (partner 0.5 µM)
In short: as §1

TPCA-1 + Vorinostat = compound: C1=CC(=CC=C1C2=CC(=C(S2)NC(=O)N)C(=O)N)F [TPCA-1] + O=C(CCCCCCC(=O)Nc1ccccc1)NO [Vorinostat] (partner 1 µM)
In short: as §1

| Cell Line | relative viability ([1]; first compound 0.2 µM) | relative viability ([1]; first compound 0.6325 µM) | relative viability ([1]; first compound 2 µM) | relative viability ([1]; first compound 6.325 µM) | relative viability ([1]; first compound 20 µM) | relative viability ([2]; first compound 0.2 µM) | relative viability ([2]; first compound 0.6325 µM) | relative viability ([2]; first compound 2 µM) | relative viability ([2]; first compound 6.325 µM) | relative viability ([2]; first compound 20 µM) | relative viability (TPCA-1 + Vorinostat; first compound 0.04 µM) | relative viability (TPCA-1 + Vorinostat; first compound 0.1265 µM) | relative viability (TPCA-1 + Vorinostat; first compound 0.4 µM) | relative viability (TPCA-1 + Vorinostat; first compound 1.265 µM) | relative viability (TPCA-1 + Vorinostat; first compound 4 µM) |
| --- | --- | --- | --- | --- | --- | --- | --- | --- | --- | --- | --- | --- | --- | --- | --- |
| NCI-H1437 | 0.91 | 0.853 | 0.837 | 0.701 | 0.866 | 1.15 | 1.09 | 1.07 | 1.03 | 0.992 | 0.921 | 0.867 | 0.897 | 0.819 | 0.784 |
| NCI-H1650 | 0.49 | 0.44 | 0.796 | 0.56 | 0.498 | 1.11 | 1.15 | 1.21 | 1.1 | 1.24 | 0.717 | 0.575 | 0.584 | 0.675 | 0.498 |
| NCI-H1651 | 0.553 | 0.63 | 0.694 | 0.509 | 0.558 | 1.25 | 1.01 | 1.07 | – | 1.11 | 0.571 | 0.429 | 0.629 | 0.496 | 0.239 |
| NCI-H1666 | 1.09 | 1.02 | 0.874 | 0.893 | 0.928 | 1.22 | 0.818 | 1.05 | 0.622 | 0.983 | 1.08 | 0.966 | 1.02 | 0.988 | 1.1 |
| NCI-H1734 | 0.82 | 0.875 | 0.837 | 0.745 | 0.865 | 0.837 | 0.908 | 0.914 | 0.812 | 0.866 | 0.957 | 0.737 | 0.88 | 0.839 | 0.279 |
| NCI-H1755 | 0.725 | 0.857 | 0.745 | 0.777 | 0.716 | 1.07 | 1.03 | 0.963 | 0.849 | 0.944 | 0.717 | 0.84 | 0.813 | 0.667 | 0.554 |
| NCI-H1793 | 1.02 | 0.753 | 0.892 | 0.654 | 0.734 | 0.376 | 0.512 | 0.503 | 0.402 | 0.519 | 0.619 | 0.61 | 0.967 | 0.674 | 0.236 |
| NCI-H1915 | 0.568 | 0.546 | 0.551 | 0.433 | 0.528 | 0.788 | 0.758 | 0.818 | 0.754 | 0.818 | 0.541 | 0.5 | 0.537 | 0.392 | 0.386 |
| NCI-H1944 | 0.619 | 0.535 | 0.559 | – | 0.528 | 1.14 | 0.966 | 1.08 | 0.899 | 0.992 | 0.648 | 0.709 | 0.675 | 0.512 | 0.521 |

— the supplement of paper PMC10307832
